For this test, the target named is T1, GLP-1R (Homo sapiens, UniProt P43220).
T1 construct: host or cells: GLP-1R CRE-bla CHO-K1 cells
T1 sequence (P43220 24-463): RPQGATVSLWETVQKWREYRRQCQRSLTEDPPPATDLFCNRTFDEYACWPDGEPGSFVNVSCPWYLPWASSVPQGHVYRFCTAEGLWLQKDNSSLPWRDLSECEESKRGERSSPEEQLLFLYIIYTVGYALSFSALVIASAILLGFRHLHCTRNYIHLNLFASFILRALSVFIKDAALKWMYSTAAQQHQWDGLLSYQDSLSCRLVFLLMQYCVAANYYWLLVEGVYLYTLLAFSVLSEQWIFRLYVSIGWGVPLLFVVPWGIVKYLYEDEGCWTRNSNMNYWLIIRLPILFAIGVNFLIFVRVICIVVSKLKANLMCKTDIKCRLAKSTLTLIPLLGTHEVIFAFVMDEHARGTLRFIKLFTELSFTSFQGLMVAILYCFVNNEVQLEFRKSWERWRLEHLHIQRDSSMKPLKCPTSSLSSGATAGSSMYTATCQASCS
T1 sequence (P01275 100-127 partner limits assumed): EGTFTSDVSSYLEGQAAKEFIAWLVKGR
The test is described as follows: EC20 GLP-1(9-36) PAM cAMP assay: dose response of compound in the presence of fixed concentration of GLP-1(9-36). Format: cell-based. Particulars: dose response of compound in presence of fixed concentration of GLP-1(9-36), GLP-1R CRE-bla CHO-K1 cells, read-out: EC20 GLP-1(9-36) PAM EC50. The gist of the method: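 Positive allosteric modulation read as cAMP accumulation: compound titrations (12 points) combined with an EC20 level of GLP-1(9-36) on CHO-K1 GLP-1R CRE-bla cells, IBMX present, 30 min, 37 °C, pH 7.4 buffer. Luminescence converted to cAMP via standards; non-linear fit gave EC50 and Emax.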
With `CC(C)Oc1ccc(-c2cnc(-c3ccc(C[C@H](NC(=O)c4ccc(C(C)(C)C)cc4)C(=O)NCCC(=O)O)cc3)nc2)cc1` [Compound 695], the EC50 is 2500 to 5000 nM. In the case of `CCC(CC)Oc1ccc(-c2cnc(-c3ccc(C[C@H](NC(=O)c4ccc(C(C)(C)C)cc4)C(=O)NCCC(=O)O)cc3)nc2)cc1` [Compound 696], the EC50 is 2500 to 5000 nM.

As to `CCCCCCCOc1ccc(-c2cnc(-c3ccc(C[C@H](NC(=O)c4ccc(C(C)(C)C)cc4)C(=O)NCCC(=O)O)cc3)nc2)cc1F` [Compound 697], the EC50 lay within 2500 to 5000 nM. Turning to `CCCCCCCOc1ccc(-c2cnc(-c3ccc(C[C@H](NC(=O)c4ccc(C(C)(C)C)cc4)C(=O)NCCC(=O)O)cc3)nc2)cc1C` [Compound 698], the EC50 was under 800 nM. Turning to `CCCCCCCOc1ccc(-c2cnc(-c3ccc(C[C@H](NC(=O)c4ccc(C(C)(C)C)cc4)C(=O)NCCC(=O)O)cc3)nc2)cc1OC` [Compound 699], the EC50 was in the range of 5000 to 10000 nM. Consider `CCCCCCCOc1ccc(-c2cnc(-c3ccc(C[C@H](NC(=O)c4ccc(C(C)(C)C)cc4)C(=O)NCCC(=O)O)cc3)nc2)cc1C#N` [Compound 700], for which the half-maximal effective concentration (EC50) was 5000 to 10000 nM. On to `CCCCCCCOc1ccc(-c2cnc(-c3ccc(C[C@H](NC(=O)c4ccc(C(C)(C)C)cc4)C(=O)NCCC(=O)O)cc3)nc2)c(Cl)c1` [Compound 701], for which the EC50 lay within 2500 to 5000 nM. Consider `CCCCCCCOc1ccc(-c2cnc(-c3ccc(C[C@H](NC(=O)c4ccc(C(C)(C)C)cc4)C(=O)NCCC(=O)O)cc3)nc2)cc1Cl` [Compound 702], for which the 50% effective concentration (EC50) is 800 to 2500 nM.

Take `CCCCCCCOc1ccc(-c2cnc(-c3ccc(C[C@H](NC(=O)c4ccc(C(C)(C)C)cc4)C(=O)NCCC(=O)O)cc3)nc2)cc1CC` [Compound 703]: the EC50 is under 800 nM. The result for `CCCCCCCOc1ccc(-c2cnc(-c3ccc(C[C@H](NC(=O)c4ccc(C(C)(C)C)cc4)C(=O)NCCC(=O)O)cc3)nc2)cc1C1CC1` [Compound 704] reads 800 to 2500 nM; that for `CCCCCCCOc1c(C)cc(-c2cnc(-c3ccc(C[C@H](NC(=O)c4ccc(C(C)(C)C)cc4)C(=O)NCCC(=O)O)cc3)nc2)cc1C` [Compound 705], 800 to 2500 nM.

In the case of `CCCC(C)CCOc1ccc(-c2cnc(-c3ccc(C[C@H](NC(=O)c4ccc(C(C)(C)C)cc4)C(=O)NCCC(=O)O)cc3)nc2)cc1` (stereo partly drawn) [Compound 706], the EC50 fell in the range of 800 to 2500 nM. On to `CCCC(C)COc1ccc(-c2cnc(-c3ccc(C[C@H](NC(=O)c4ccc(C(C)(C)C)cc4)C(=O)NCCC(=O)O)cc3)nc2)cc1` (stereo partly drawn) [Compound 707], for which the EC50 was 5000 to 10000 nM. Consider `CCCOc1ccc(-c2cnc(-c3ccc(C[C@H](NC(=O)c4ccc(C(C)(C)C)cc4)C(=O)NCCC(=O)O)cc3)nc2)cc1` [Compound 708], for which the EC50 was in the range of 800 to 2500 nM. Take `CCCCOc1ccc(-c2cnc(-c3ccc(C[C@H](NC(=O)c4ccc(C(C)(C)C)cc4)C(=O)NCCC(=O)O)cc3)nc2)cc1` [Compound 709]: the EC50 was in the range of 800 to 2500 nM. Under `CCCCCOc1ccc(-c2cnc(-c3ccc(C[C@H](NC(=O)c4ccc(C(C)(C)C)cc4)C(=O)NCCC(=O)O)cc3)nc2)cc1` [Compound 710] stands 5000 to 10000 nM; under `CCCCCCOc1ccc(-c2cnc(-c3ccc(C[C@H](NC(=O)c4ccc(C(C)(C)C)cc4)C(=O)NCCC(=O)O)cc3)nc2)cc1` [Compound 711], 2500 to 5000 nM; under `CCCCCCCCOc1ccc(-c2cnc(-c3ccc(C[C@H](NC(=O)c4ccc(C(C)(C)C)cc4)C(=O)NCCC(=O)O)cc3)nc2)cc1` [Compound 712], 800 to 2500 nM. For `CC(C)(C)c1ccc(COc2ccc(-c3cnc(-c4ccc(C[C@H](NC(=O)c5ccc(C(C)(C)C)cc5)C(=O)NCCC(=O)O)cc4)nc3)cc2)cc1` [Compound 713], the EC50 lay within 800 to 2500 nM. In the case of `C/C=C/CCCOc1ccc(-c2cnc(-c3ccc(C[C@H](NC(=O)c4ccc(C(C)C)cc4)C(=O)NCCC(=O)O)cc3)nc2)cc1` [Compound 714], the EC50 was 2500 to 5000 nM.

Turning to `CCC/C=C\CCOc1ccc(-c2cnc(-c3ccc(C[C@H](NC(=O)c4ccc(C(C)(C)C)cc4)C(=O)NCCC(=O)O)cc3)nc2)cc1` [Compound 715], the EC50 fell in the range of 2500 to 5000 nM. `CCC/C=C/CCOc1ccc(-c2cnc(-c3ccc(C[C@H](NC(=O)c4ccc(C(C)(C)C)cc4)C(=O)NCCC(=O)O)cc3)nc2)cc1` [Compound 716]: the EC50 was in the range of 800 to 2500 nM. As to `CCCCOc1ccc(-c2cnc(-c3ccc(C[C@H](NC(=O)c4ccc(C(C)(C)C)cc4)C(=O)N[C@H](C)C(=O)O)cc3)nc2)cc1` [Compound 717], the concentration giving a half-maximal response (EC50) was in the range of 800 to 2500 nM. For the compound `CCCCCOc1ccc(-c2cnc(-c3ccc(C[C@H](NC(=O)c4ccc(C(C)(C)C)cc4)C(=O)N[C@H](C)C(=O)O)cc3)nc2)cc1` [Compound 718], the EC50 lay within 2500 to 5000 nM.

Turning to `CCCCCCOc1ccc(-c2cnc(-c3ccc(C[C@H](NC(=O)c4ccc(C(C)(C)C)cc4)C(=O)N[C@H](C)C(=O)O)cc3)nc2)cc1` [Compound 719], the EC50 is 800 to 2500 nM. For the compound `C[C@@H](NC(=O)[C@H](Cc1ccc(-c2ncc(-c3ccc(C(C)(C)C)cc3)cn2)cc1)NC(=O)c1ccc(C(C)(C)C)cc1)C(=O)O` [Compound 720], the EC50 was 2500 to 5000 nM. In the case of `CCOc1ccc(-c2cnc(-c3ccc(C[C@H](NC(=O)c4ccc(C(C)(C)C)cc4)C(=O)N[C@H](C)C(=O)O)cc3)nc2)cc1` [Compound 721], the EC50 fell in the range of 800 to 2500 nM. In the case of `CCCOc1ccc(-c2cnc(-c3ccc(C[C@H](NC(=O)c4ccc(C(C)(C)C)cc4)C(=O)N[C@H](C)C(=O)O)cc3)nc2)cc1` [Compound 722], the EC50 lay in the range of 800 to 2500 nM.

Regarding `CCCCCCCCOc1ccc(-c2cnc(-c3ccc(C[C@H](NC(=O)c4ccc(C(C)(C)C)cc4)C(=O)N[C@H](C)C(=O)O)cc3)nc2)cc1` [Compound 723], the EC50 was in the range of 800 to 2500 nM. For the compound `CCCCCCCc1ccc(-c2cnc(-c3ccc(C[C@H](NC(=O)c4ccc(C(C)(C)C)cc4)C(=O)N[C@H](C)C(=O)O)cc3)nc2)cc1` [Compound 724], the half-maximal effective concentration (EC50) is 800 to 2500 nM.

For the compound `CCCCCC(=O)c1ccc(-c2cnc(-c3ccc(C[C@H](NC(=O)c4ccc(C(C)(C)C)cc4)C(=O)N[C@H](C)C(=O)O)cc3)nc2)cc1` [Compound 725], the concentration giving a half-maximal response (EC50) was 800 to 2500 nM. `C[C@@H](NC(=O)[C@H](Cc1ccc(-c2ncc(-c3ccc(OCC(C)(C)C)cc3)cn2)cc1)NC(=O)c1ccc(C(C)(C)C)cc1)C(=O)O` [Compound 726]: the EC50 was in the range of 800 to 2500 nM. In the case of `Cc1ccc(-c2ccc(-c3cnc(-c4ccc(C[C@H](NC(=O)c5ccc(C(C)(C)C)cc5)C(=O)N[C@H](C)C(=O)O)cc4)nc3)cc2)cc1` [Compound 727], the EC50 was 2500 to 5000 nM. In the case of `C[C@@H](NC(=O)[C@H](Cc1ccc(-c2ncc(-c3ccc(C(F)(F)F)cc3)cn2)cc1)NC(=O)c1ccc(C(C)(C)C)cc1)C(=O)O` [Compound 728], the concentration for a half-maximal effect (EC50) fell in the range of 800 to 2500 nM. Turning to `CCCCCCNc1ccc(-c2cnc(-c3ccc(C[C@H](NC(=O)c4ccc(C(C)(C)C)cc4)C(=O)N[C@H](C)C(=O)O)cc3)nc2)cc1` [Compound 729], the concentration for a half-maximal effect (EC50) fell in the range of 800 to 2500 nM. For the compound `COc1ccc(-c2cnc(-c3ccc(C[C@H](NC(=O)c4ccc(C(C)(C)C)s4)C(=O)N[C@H](C)C(=O)O)cc3)nc2)cc1` [Compound 730], the half-maximal effective concentration (EC50) was in the range of 2500 to 5000 nM.

For `CCOc1ccc(-c2cnc(-c3ccc(C[C@H](NC(=O)c4ccc(C(C)(C)C)s4)C(=O)N[C@H](C)C(=O)O)cc3)nc2)cc1` [Compound 731], the half-maximal effective concentration (EC50) lay in the range of 2500 to 5000 nM.

In the case of `CCCOc1ccc(-c2cnc(-c3ccc(C[C@H](NC(=O)c4ccc(C(C)(C)C)s4)C(=O)N[C@H](C)C(=O)O)cc3)nc2)cc1` [Compound 732], the EC50 fell in the range of 800 to 2500 nM. Regarding `CCCCOc1ccc(-c2cnc(-c3ccc(C[C@H](NC(=O)c4ccc(C(C)(C)C)s4)C(=O)N[C@H](C)C(=O)O)cc3)nc2)cc1` [Compound 733], the EC50 fell in the range of 800 to 2500 nM. For `CCCCCOc1ccc(-c2cnc(-c3ccc(C[C@H](NC(=O)c4ccc(C(C)(C)C)s4)C(=O)N[C@H](C)C(=O)O)cc3)nc2)cc1` [Compound 734], the EC50 fell in the range of 800 to 2500 nM. As for `CCCCCCOc1ccc(-c2cnc(-c3ccc(C[C@H](NC(=O)c4ccc(C(C)(C)C)s4)C(=O)N[C@H](C)C(=O)O)cc3)nc2)cc1` [Compound 735], the EC50 lay within 800 to 2500 nM. Under `CCCCCCCCOc1ccc(-c2cnc(-c3ccc(C[C@H](NC(=O)c4ccc(C(C)(C)C)s4)C(=O)N[C@H](C)C(=O)O)cc3)nc2)cc1` [Compound 736] stands under 800 nM; under `CCCCCCCc1ccc(-c2cnc(-c3ccc(C[C@H](NC(=O)c4ccc(C(C)(C)C)s4)C(=O)N[C@H](C)C(=O)O)cc3)nc2)cc1` [Compound 737], under 800 nM; under `CCCCCC(=O)c1ccc(-c2cnc(-c3ccc(C[C@H](NC(=O)c4ccc(C(C)(C)C)s4)C(=O)N[C@H](C)C(=O)O)cc3)nc2)cc1` [Compound 738], under 800 nM.

For the compound `C[C@@H](NC(=O)[C@H](Cc1ccc(-c2ncc(-c3ccc(OCC(C)(C)C)cc3)cn2)cc1)NC(=O)c1ccc(C(C)(C)C)s1)C(=O)O` [Compound 739], the EC50 was under 800 nM. As to `C[C@@H](NC(=O)[C@H](Cc1ccc(-c2ncc(-c3ccc(N4CCCCC4)cc3)cn2)cc1)NC(=O)c1ccc(C(C)(C)C)s1)C(=O)O` [Compound 740], the EC50 fell in the range of 2500 to 5000 nM. Turning to `C[C@@H](NC(=O)[C@H](Cc1ccc(-c2ncc(-c3ccc(-c4ccccc4)cc3)cn2)cc1)NC(=O)c1ccc(C(C)(C)C)s1)C(=O)O` [Compound 741], the EC50 was in the range of 2500 to 5000 nM. Turning to `C[C@@H](NC(=O)[C@H](Cc1ccc(-c2ncc(-c3ccc(C(F)(F)F)cc3)cn2)cc1)NC(=O)c1ccc(C(C)(C)C)s1)C(=O)O` [Compound 742], the EC50 was in the range of 2500 to 5000 nM. Under `CCCCc1noc(-c2cnc(-c3ccc(C[C@H](NC(=O)c4ccc(C(C)(C)C)cc4)C(=O)NCCC(=O)O)cc3)nc2)n1` [Compound 743] stands 5000 to 10000 nM. In the case of `CC(C)(C)Cc1noc(-c2cnc(-c3ccc(C[C@H](NC(=O)c4ccc(C(C)(C)C)cc4)C(=O)NCCC(=O)O)cc3)nc2)n1` [Compound 744], the concentration giving a half-maximal response (EC50) lay within 5000 to 10000 nM. Under `CC(C)(C)c1ccc(C(=O)N[C@@H](Cc2ccc(-c3ncc(-c4nc(-c5ccc(C(C)(C)C)cc5)no4)cn3)cc2)C(=O)NCCC(=O)O)cc1` [Compound 745] stands 800 to 2500 nM.

The values are drawn from patent publication US10034886B2, “GLP-1 receptor modulators” (Celgene International II SÀRL, priority 2014, dated 2018).
